# Assay results reported in patent publication US8636951B2, “Bio-terrorism counteraction using ozone and hydrogen peroxide” (priority 2010, dated 2014).
# Test system: Bacillus subtilis
# Format: cell-based
structure (smiles),measurement,value
OO [hydrogen peroxide],A: count of viable Bacillus colonies at 10 dilution,TNTCT
same,B: count of viable Bacillus colonies at 100 dilution,NTC
same,C: count of viable Bacillus colonies at 1000 dilution,210
same,D: count of viable Bacillus colonies at 10000 dilution,12
same,Log10 RED,0 Log10
O=[O+][O-] [ozone],A: count of viable Bacillus colonies at 10 dilution,TNTCT
same,B: count of viable Bacillus colonies at 100 dilution,NTC
